Laboratory results published in PubChem BioAssay (NCI).
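Briefly, cells in 96-well plates were exposed to five compound concentrations for 48 h, and endpoints were estimated by linear interpolation. Here, GI50 denotes the concentration required for 50% inhibition of growth. TGI: concentration producing complete growth inhibition.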

Legend:
Test in all cases: growth of human tumour cells (NCI), 48 h
A498 renal = tested on: A498 renal
HOP-92 NSCLC = tested on: HOP-92 NSCLC
NCI/ADR-RES ovarian = tested on: NCI/ADR-RES ovarian
RXF 393 renal = tested on: RXF 393 renal
IGROV1 ovarian = tested on: IGROV1 ovarian
K-562 leukemia = tested on: K-562 leukemia
U251 CNS = tested on: U251 CNS
NCI-H23 lung = tested on: NCI-H23 lung
NCI-H460 lung = tested on: NCI-H460 lung
SNB-19 CNS = tested on: SNB-19 CNS

Row | SMILES | TGI (A498 renal) | TGI (HOP-92 NSCLC) | TGI (NCI/ADR-RES ovarian) | TGI (RXF 393 renal) | TGI (IGROV1 ovarian) | TGI (K-562 leukemia) | TGI (U251 CNS) | TGI (NCI-H23 lung) | TGI (NCI-H460 lung) | TGI (SNB-19 CNS) | GI50 (A498 renal) | GI50 (HOP-92 NSCLC) | GI50 (NCI/ADR-RES ovarian) | GI50 (RXF 393 renal) | GI50 (IGROV1 ovarian) | GI50 (K-562 leukemia) | GI50 (U251 CNS) | GI50 (NCI-H23 lung) | GI50 (NCI-H460 lung) | GI50 (SNB-19 CNS)
1 | CO/[N+]([O-])=C\C(=O)N/C=C/C(=O)O | > 100 µM | > 100 µM | > 100 µM | > 100 µM | > 100 µM | > 100 µM | > 100 µM | > 100 µM | > 100 µM | > 100 µM |  |  |  |  |  |  |  |  |  | 
2 | O=C(CCCCCCCn1cc(-c2cccnc2)nn1)Nc1ccccc1-c1ccccc1 | > 86.1 µM | > 100 µM | 27.4 µM | > 100 µM | > 100 µM | 44.7 µM | > 100 µM | > 100 µM | > 100 µM | > 100 µM | 13.7 µM | 31.8 µM | 0.0688 µM | > 43.6 µM | 0.272 µM | 0.0633 µM | 0.22 µM | 13.8 µM | 0.674 µM | 1.74 µM
3 | Cc1cccc(-c2nn3c(c2-c2ccnc4ccc(C(N)=O)cc24)CCC3)n1 | > 100 µM | > 100 µM | > 100 µM | > 100 µM | > 100 µM | > 100 µM | > 100 µM | > 100 µM | > 100 µM | > 100 µM | 97.5 µM | > 100 µM | > 100 µM | > 100 µM | > 92.3 µM | > 100 µM | > 100 µM | > 100 µM | > 100 µM | > 100 µM
4 | COc1cccc(Cn2c(-c3nonc3N)nc3ccccc32)c1 | 0.696 µM | 16.4 µM |  | 0.675 µM | > 75.6 µM | > 100 µM | > 92.2 µM | > 100 µM | > 34.6 µM | > 100 µM | 0.0532 µM | 0.344 µM | 0.396 µM | 0.244 µM | 0.624 µM | 0.355 µM | 0.436 µM | 0.717 µM | 0.378 µM | 0.907 µM
5 | COc1ccccc1-c1cc(/C=C2\C(=O)Nc3ncc(Br)cc32)cc(Br)c1O | 19.5 µM | > 25 µM | > 25 µM | > 25 µM | > 25 µM | > 25 µM | > 25 µM | > 25 µM | > 25 µM | > 25 µM | 3.73 µM | 1.21 µM | 14.5 µM | 6.77 µM | 10.4 µM | 9.76 µM | 12.7 µM | 10.5 µM | 11.6 µM | 12.5 µM
6 | Fc1ccc(-c2nn3c(CNc4ccccc4)nnc3s2)cc1 | > 100 µM | > 100 µM | 53.6 µM | > 100 µM | > 100 µM | > 100 µM | > 100 µM | > 100 µM | > 100 µM | > 100 µM | 37 µM | 17.5 µM | 13.6 µM | > 100 µM | 49.3 µM | 41.6 µM | 23.5 µM | 27.2 µM | 52.3 µM | 33.6 µM
